Data on one molecule can be found in paper PMC12337661, “PIEZO1 mechanical insensitivity in generalized lymphatic dysplasia with the potential for pharmacological rescue” (iScience, 2025).

The target of the test is T1, WT mPIEZO1 (Mus musculus, UniProt E2JF22).
T1 construct: expressed in transfected cells
The test can be described thus: Long substance exposure and hypo-osmolality protocol Ca2+ assay. The test is classed as cell-based. The conditions noted are these: 10 µM. How it is done:
For intracellular Ca^2+ assays, cells were plated at 80–90% confluence in 96-well plates 24 h prior to recordings (6–8 × 10^4 cells per well). […] Cells were washed with SBS and incubated at room temperature for 20 min prior to recordings. Equal volumes of 2x concentrated compounds were injected to test for acute channel activation. Pre-incubation with compounds occurred during the 20 min prior to recordings. To expose cell membranes to hypo-osmolality, an equal volume of hypotonic SBS (containing only 35 mM NaCl) was injected onto the cells. Measurements were made on a fluorescence plate reader (Flexstation III, Molecular Devices) at room temperature (21 ± 2°C). Fura-2 was excited at 340 nm and 380 nm and emitted light collected at 510 nm, with measurements shown as the change in fluorescence (F) ratio (ΔF340/380).
SI Figure S5: Hypo-osm ol al it y test in the Ca2+ assay, referred to in the main paper
(a) Typical 96-well plate mean ± s.e.m. data for changes in intracellular Ca2+ evoked by hypotonic (35 mM NaCl) or normotonic (135 mM NaCl) medium for WT- or Empty vector-transfected cells in increasing concentrations of Yoda1 as indicated and colour -coded on t he right (representative of n = 3-6 independent experiments). […]

T1 sequence (E2JF22 whole entry): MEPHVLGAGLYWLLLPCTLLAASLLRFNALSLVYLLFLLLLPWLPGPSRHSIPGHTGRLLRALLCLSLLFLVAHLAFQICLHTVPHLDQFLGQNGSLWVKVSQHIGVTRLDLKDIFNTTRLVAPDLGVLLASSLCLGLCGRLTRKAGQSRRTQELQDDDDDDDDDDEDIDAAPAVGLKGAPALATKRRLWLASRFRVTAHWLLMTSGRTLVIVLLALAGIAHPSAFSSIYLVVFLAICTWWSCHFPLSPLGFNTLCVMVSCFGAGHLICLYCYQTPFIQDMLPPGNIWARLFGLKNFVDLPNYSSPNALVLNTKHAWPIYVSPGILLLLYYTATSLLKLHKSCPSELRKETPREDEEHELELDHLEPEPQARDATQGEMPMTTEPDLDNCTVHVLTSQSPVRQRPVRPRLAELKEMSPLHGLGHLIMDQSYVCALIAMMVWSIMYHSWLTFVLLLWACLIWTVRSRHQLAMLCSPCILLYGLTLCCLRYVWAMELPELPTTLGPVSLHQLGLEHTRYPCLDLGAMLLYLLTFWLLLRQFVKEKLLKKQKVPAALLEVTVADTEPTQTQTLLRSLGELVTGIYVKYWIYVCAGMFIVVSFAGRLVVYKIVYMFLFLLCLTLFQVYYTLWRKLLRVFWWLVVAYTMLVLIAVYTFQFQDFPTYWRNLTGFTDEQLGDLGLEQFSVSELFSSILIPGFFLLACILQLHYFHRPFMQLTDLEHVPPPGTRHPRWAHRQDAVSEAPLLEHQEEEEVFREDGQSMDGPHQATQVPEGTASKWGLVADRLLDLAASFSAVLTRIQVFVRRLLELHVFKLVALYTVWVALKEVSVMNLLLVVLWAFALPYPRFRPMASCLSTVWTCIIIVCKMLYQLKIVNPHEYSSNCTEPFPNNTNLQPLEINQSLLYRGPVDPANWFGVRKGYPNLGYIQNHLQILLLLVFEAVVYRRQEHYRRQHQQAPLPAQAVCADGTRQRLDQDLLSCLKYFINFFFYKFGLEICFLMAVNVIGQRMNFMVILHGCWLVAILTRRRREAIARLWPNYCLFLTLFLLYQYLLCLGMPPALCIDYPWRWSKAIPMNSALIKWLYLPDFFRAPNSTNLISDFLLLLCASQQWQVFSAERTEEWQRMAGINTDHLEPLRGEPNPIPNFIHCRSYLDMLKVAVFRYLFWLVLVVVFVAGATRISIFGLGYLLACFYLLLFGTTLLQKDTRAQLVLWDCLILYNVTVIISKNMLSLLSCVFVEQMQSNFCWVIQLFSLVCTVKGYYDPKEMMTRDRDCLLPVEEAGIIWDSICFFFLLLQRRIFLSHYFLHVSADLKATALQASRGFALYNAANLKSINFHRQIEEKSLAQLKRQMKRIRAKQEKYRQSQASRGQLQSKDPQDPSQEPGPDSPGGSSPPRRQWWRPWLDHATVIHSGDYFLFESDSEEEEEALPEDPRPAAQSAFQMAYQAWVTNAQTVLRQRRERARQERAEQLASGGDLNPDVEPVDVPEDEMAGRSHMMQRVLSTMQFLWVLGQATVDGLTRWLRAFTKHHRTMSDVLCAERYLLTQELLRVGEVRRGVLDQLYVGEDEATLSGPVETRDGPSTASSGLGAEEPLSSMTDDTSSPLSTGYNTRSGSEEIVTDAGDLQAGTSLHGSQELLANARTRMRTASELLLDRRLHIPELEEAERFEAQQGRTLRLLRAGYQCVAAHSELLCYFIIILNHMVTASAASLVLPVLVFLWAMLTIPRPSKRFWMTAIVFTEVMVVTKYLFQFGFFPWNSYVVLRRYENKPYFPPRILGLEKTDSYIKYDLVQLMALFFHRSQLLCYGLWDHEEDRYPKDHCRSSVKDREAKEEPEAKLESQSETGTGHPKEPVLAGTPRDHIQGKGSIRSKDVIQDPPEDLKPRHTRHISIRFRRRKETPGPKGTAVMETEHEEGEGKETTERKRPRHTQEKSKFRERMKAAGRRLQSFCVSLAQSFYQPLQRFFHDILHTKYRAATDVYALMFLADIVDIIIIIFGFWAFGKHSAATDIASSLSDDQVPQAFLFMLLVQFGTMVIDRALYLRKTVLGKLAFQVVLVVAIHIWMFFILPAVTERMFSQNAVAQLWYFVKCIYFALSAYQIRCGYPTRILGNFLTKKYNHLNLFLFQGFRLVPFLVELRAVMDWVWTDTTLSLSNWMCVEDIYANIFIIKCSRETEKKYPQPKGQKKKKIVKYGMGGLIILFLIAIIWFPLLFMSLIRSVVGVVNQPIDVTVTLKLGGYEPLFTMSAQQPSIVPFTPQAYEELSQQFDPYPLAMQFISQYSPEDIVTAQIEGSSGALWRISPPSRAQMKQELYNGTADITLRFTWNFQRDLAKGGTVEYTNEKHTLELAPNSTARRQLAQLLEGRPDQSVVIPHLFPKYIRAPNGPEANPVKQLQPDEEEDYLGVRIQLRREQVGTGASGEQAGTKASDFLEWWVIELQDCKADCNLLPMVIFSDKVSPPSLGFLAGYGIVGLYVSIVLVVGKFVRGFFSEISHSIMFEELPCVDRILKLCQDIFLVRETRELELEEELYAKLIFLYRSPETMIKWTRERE

Consider `Nc1ccc(-c2nnc(SCc3c(Cl)cccc3Cl)s2)cc1` [KC146, 4-(5-((2,6-dichlorobenzyl)thio)-1,3,4-thiadiazol-2-yl)aniline], for which the assay interference result is “caused a fluorescence artefact”.
